Test results published in the supplement of paper PMC10307832.

Legend:
Assay in all cases: relative viability (nuclei count vs DMSO), 5 days (fraction); higher = more cells survive
PC-3 [JPC-3] = tested on: PC-3 [JPC-3]
Method in brief: (§1)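 Values are medians from duplicate plates. Each reflects relative viability, defined as the nuclei count of treated wells over that of vehicle wells. Lung cancer cell lines in 1536-well plates were pin-tool dosed one day after seeding with one drug alone or with a fixed anchor-drug dose plus five library-drug doses (not always all listed) in √10 steps, then fixed, stained and imaged at 4× after 5 days.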

PC-14 = tested on: PC-14
Method in brief: as §1

NCI-H1355 = tested on: NCI-H1355
Method in brief: as §1

NCI-H1563 = tested on: NCI-H1563
Method in brief: as §1

NCI-H322M = tested on: NCI-H322M
Method in brief: as §1

RERF-LC-KJ = tested on: RERF-LC-KJ
Method in brief: as §1

CAL-12T = tested on: CAL-12T
Method in brief: as §1

EKVX = tested on: EKVX
Method in brief: as §1

NCI-H2228 = tested on: NCI-H2228
Method in brief: as §1

ABC-1 = tested on: ABC-1
Method in brief: as §1

COR-L23 = tested on: COR-L23
Method in brief: as §1

HCC-15 = tested on: HCC-15
Method in brief: as §1

NCI-H2405 = tested on: NCI-H2405
Method in brief: as §1

SW 1573 = tested on: SW 1573
Method in brief: as §1

LK-2 = tested on: LK-2
Method in brief: as §1

HCC-827 = tested on: HCC-827
Method in brief: as §1

H3255 = tested on: H3255
Method in brief: as §1

SK-MES-1 = tested on: SK-MES-1
Method in brief: as §1

NCI-H661 = tested on: NCI-H661
Method in brief: as §1

NCI-H520 = tested on: NCI-H520
Method in brief: as §1

NCI-H1437 = tested on: NCI-H1437
Method in brief: as §1

NCI-H1734 = tested on: NCI-H1734
Method in brief: as §1

NCI-H1651 = tested on: NCI-H1651
Method in brief: as §1

Question: C[C@@H]1CN(CC(=O)Nc2ccc3c(c2)Cc2cccc(-c4cc(=O)cc(N5CCOCC5)o4)c2S3)C[C@H](C)O1 + Cc1nc(NC(=O)N2CCC[C@H]2C(N)=O)sc1-c1ccnc(C(C)(C)C(F)(F)F)c1 [Alpelisib] (partner 2 µM) was tested. Which relative viability (PC-3 [JPC-3]; first compound 0.04 µM) did it give?
Answer: The relative viability was 1.02.

Question: And the relative viability (PC-3 [JPC-3]; first compound 0.1265 µM)?
Answer: Its relative viability is 1.

Question: And the relative viability (PC-3 [JPC-3]; first compound 0.4 µM)?
Answer: The relative viability was 1.

Question: And the relative viability (PC-3 [JPC-3]; first compound 4 µM)?
Answer: Its relative viability is 0.952.

Question: What about the relative viability (PC-14; first compound 0.04 µM) of the same compound?
Answer: The relative viability was 0.961.

Question: What about the relative viability (PC-14; first compound 0.1265 µM) of the same compound?
Answer: The relative viability was 0.986.

Question: What about the relative viability (PC-14; first compound 0.4 µM) of the same compound?
Answer: The relative viability was 0.9.

Question: And the relative viability (PC-14; first compound 4 µM)?
Answer: Its relative viability is 0.855.

Question: And the relative viability (NCI-H1355; first compound 0.04 µM)?
Answer: The relative viability was 0.856.

Question: What about the relative viability (NCI-H1355; first compound 0.1265 µM) of the same compound?
Answer: The relative viability was 0.759.

Question: And the relative viability (NCI-H1355; first compound 0.4 µM)?
Answer: The relative viability was 0.862.

Question: And the relative viability (NCI-H1355; first compound 4 µM)?
Answer: The relative viability was 0.827.

Question: And the relative viability (NCI-H1563; first compound 0.04 µM)?
Answer: The relative viability was 0.942.

Question: And the relative viability (NCI-H1563; first compound 0.1265 µM)?
Answer: The relative viability was 0.918.

Question: What about the relative viability (NCI-H1563; first compound 0.4 µM) of the same compound?
Answer: Its relative viability is 0.748.

Question: And the relative viability (NCI-H1563; first compound 4 µM)?
Answer: Its relative viability is 0.753.

Question: What about the relative viability (NCI-H322M; first compound 0.04 µM) of the same compound?
Answer: The relative viability was 0.844.

Question: And the relative viability (NCI-H322M; first compound 0.1265 µM)?
Answer: The relative viability was 0.833.

Question: What about the relative viability (NCI-H322M; first compound 0.4 µM) of the same compound?
Answer: The relative viability was 0.832.

Question: And the relative viability (NCI-H322M; first compound 4 µM)?
Answer: Its relative viability is 0.839.

Question: And the relative viability (RERF-LC-KJ; first compound 0.04 µM)?
Answer: The relative viability was 0.869.

Question: And the relative viability (RERF-LC-KJ; first compound 0.1265 µM)?
Answer: The relative viability was 0.764.

Question: And the relative viability (RERF-LC-KJ; first compound 0.4 µM)?
Answer: Its relative viability is 0.774.

Question: And the relative viability (RERF-LC-KJ; first compound 4 µM)?
Answer: The relative viability was 0.792.

Question: What about the relative viability (CAL-12T; first compound 0.04 µM) of the same compound?
Answer: Its relative viability is 1.33.

Question: What about the relative viability (CAL-12T; first compound 0.1265 µM) of the same compound?
Answer: The relative viability was 1.37.

Question: What about the relative viability (CAL-12T; first compound 0.4 µM) of the same compound?
Answer: Its relative viability is 1.19.

Question: And the relative viability (CAL-12T; first compound 4 µM)?
Answer: Its relative viability is 0.841.

Question: What about the relative viability (EKVX; first compound 0.04 µM) of the same compound?
Answer: Its relative viability is 0.737.

Question: What about the relative viability (EKVX; first compound 0.1265 µM) of the same compound?
Answer: The relative viability was 0.818.

Question: And the relative viability (EKVX; first compound 0.4 µM)?
Answer: The relative viability was 0.818.

Question: And the relative viability (EKVX; first compound 4 µM)?
Answer: The relative viability was 0.732.

Question: And the relative viability (NCI-H2228; first compound 0.04 µM)?
Answer: Its relative viability is 0.708.

Question: What about the relative viability (NCI-H2228; first compound 0.1265 µM) of the same compound?
Answer: Its relative viability is 0.707.

Question: What about the relative viability (NCI-H2228; first compound 0.4 µM) of the same compound?
Answer: The relative viability was 0.754.

Question: And the relative viability (NCI-H2228; first compound 4 µM)?
Answer: The relative viability was 0.485.

Question: And the relative viability (ABC-1; first compound 0.1265 µM)?
Answer: The relative viability was 1.05.

Question: What about the relative viability (ABC-1; first compound 0.4 µM) of the same compound?
Answer: The relative viability was 0.872.

Question: What about the relative viability (ABC-1; first compound 4 µM) of the same compound?
Answer: Its relative viability is 0.466.

Question: And the relative viability (COR-L23; first compound 0.04 µM)?
Answer: The relative viability was 1.02.

Question: What about the relative viability (COR-L23; first compound 0.1265 µM) of the same compound?
Answer: The relative viability was 0.802.

Question: And the relative viability (COR-L23; first compound 0.4 µM)?
Answer: The relative viability was 0.798.

Question: What about the relative viability (COR-L23; first compound 4 µM) of the same compound?
Answer: Its relative viability is 0.727.

Question: And the relative viability (HCC-15; first compound 0.04 µM)?
Answer: The relative viability was 0.976.

Question: And the relative viability (HCC-15; first compound 0.1265 µM)?
Answer: The relative viability was 0.881.

Question: What about the relative viability (HCC-15; first compound 0.4 µM) of the same compound?
Answer: Its relative viability is 0.826.

Question: What about the relative viability (HCC-15; first compound 4 µM) of the same compound?
Answer: The relative viability was 0.71.

Question: And the relative viability (NCI-H2405; first compound 0.04 µM)?
Answer: The relative viability was 0.899.

Question: And the relative viability (NCI-H2405; first compound 0.1265 µM)?
Answer: Its relative viability is 0.818.

Question: And the relative viability (NCI-H2405; first compound 0.4 µM)?
Answer: The relative viability was 0.769.

Question: And the relative viability (NCI-H2405; first compound 4 µM)?
Answer: The relative viability was 0.698.

Question: What about the relative viability (SW 1573; first compound 0.04 µM) of the same compound?
Answer: The relative viability was 0.867.

Question: What about the relative viability (SW 1573; first compound 0.1265 µM) of the same compound?
Answer: The relative viability was 0.852.

Question: And the relative viability (SW 1573; first compound 0.4 µM)?
Answer: Its relative viability is 0.771.

Question: What about the relative viability (SW 1573; first compound 4 µM) of the same compound?
Answer: Its relative viability is 0.753.

Question: What about the relative viability (LK-2; first compound 0.1265 µM) of the same compound?
Answer: Its relative viability is 1.11.

Question: What about the relative viability (LK-2; first compound 0.4 µM) of the same compound?
Answer: The relative viability was 1.18.

Question: What about the relative viability (LK-2; first compound 4 µM) of the same compound?
Answer: The relative viability was 1.28.

Question: What about the relative viability (HCC-827; first compound 0.04 µM) of the same compound?
Answer: The relative viability was 1.02.

Question: And the relative viability (HCC-827; first compound 0.1265 µM)?
Answer: Its relative viability is 0.988.

Question: What about the relative viability (HCC-827; first compound 0.4 µM) of the same compound?
Answer: Its relative viability is 0.938.

Question: And the relative viability (HCC-827; first compound 4 µM)?
Answer: The relative viability was 0.978.

Question: What about the relative viability (H3255; first compound 0.04 µM) of the same compound?
Answer: The relative viability was 0.569.

Question: And the relative viability (H3255; first compound 0.1265 µM)?
Answer: Its relative viability is 0.659.

Question: And the relative viability (H3255; first compound 0.4 µM)?
Answer: Its relative viability is 0.549.

Question: And the relative viability (H3255; first compound 4 µM)?
Answer: The relative viability was 0.611.

Question: And the relative viability (SK-MES-1; first compound 0.04 µM)?
Answer: The relative viability was 0.927.

Question: What about the relative viability (SK-MES-1; first compound 0.1265 µM) of the same compound?
Answer: Its relative viability is 0.826.

Question: And the relative viability (SK-MES-1; first compound 0.4 µM)?
Answer: The relative viability was 1.02.

Question: And the relative viability (SK-MES-1; first compound 4 µM)?
Answer: Its relative viability is 0.813.

Question: And the relative viability (NCI-H661; first compound 0.1265 µM)?
Answer: Its relative viability is 0.741.

Question: What about the relative viability (NCI-H661; first compound 0.4 µM) of the same compound?
Answer: Its relative viability is 0.526.

Question: And the relative viability (NCI-H661; first compound 4 µM)?
Answer: The relative viability was 0.489.

Question: And the relative viability (NCI-H520; first compound 0.04 µM)?
Answer: The relative viability was 0.974.

Question: And the relative viability (NCI-H520; first compound 0.1265 µM)?
Answer: The relative viability was 0.917.

Question: What about the relative viability (NCI-H520; first compound 0.4 µM) of the same compound?
Answer: The relative viability was 0.535.

Question: And the relative viability (NCI-H520; first compound 4 µM)?
Answer: Its relative viability is 0.854.

Question: What about the relative viability (NCI-H1437; first compound 0.04 µM) of the same compound?
Answer: The relative viability was 1.04.

Question: And the relative viability (NCI-H1437; first compound 0.1265 µM)?
Answer: Its relative viability is 1.01.

Question: And the relative viability (NCI-H1437; first compound 0.4 µM)?
Answer: The relative viability was 0.813.

Question: What about the relative viability (NCI-H1437; first compound 4 µM) of the same compound?
Answer: Its relative viability is 0.797.

Question: And the relative viability (NCI-H1734; first compound 0.04 µM)?
Answer: The relative viability was 0.759.

Question: And the relative viability (NCI-H1734; first compound 0.1265 µM)?
Answer: Its relative viability is 0.673.

Question: And the relative viability (NCI-H1734; first compound 0.4 µM)?
Answer: Its relative viability is 0.567.

Question: And the relative viability (NCI-H1734; first compound 4 µM)?
Answer: The relative viability was 0.746.

Question: And the relative viability (NCI-H1651; first compound 0.04 µM)?
Answer: The relative viability was 0.953.

Question: What about the relative viability (NCI-H1651; first compound 0.1265 µM) of the same compound?
Answer: Its relative viability is 0.923.

Question: What about the relative viability (NCI-H1651; first compound 0.4 µM) of the same compound?
Answer: The relative viability was 0.881.

Question: What about the relative viability (NCI-H1651; first compound 4 µM) of the same compound?
Answer: The relative viability was 1.06.
